Test results reported in the NIST ThermoML archive (doi:10.1016/j.jct.2006.09.008).
“And” between values parts separate entries of the source, which are not always exact repeats. Equal values may be shown once.

Assay: mn = molality of the nth substance listed, in mol/kg
Details: 350 kPa, Liquid

O=[N+]([O-])[O-].O=[N+]([O-])[O-].[Sr+2] [strontium nitrate] + O
mass density [kg/m3]
Details | m1 = 0.0499 | m1 = 0.1006 | m1 = 0.2005 | m1 = 0.4995 | m1 = 0.7992 | m1 = 0.9995 | m1 = 1.502 | m1 = 2.003 | m1 = 3.001
278.15 K | 1009 | 1017.14 | 1034.72 | 1082.77 | 1130.52 | 1158.71 | 1231.7 | 1297.55 | 1414.38
283.15 K | 1008.59 | 1017.1 | 1033.98 | 1082.1 | 1128.88 | 1157.52 | 1229.46 | 1295.12 | 1411.42
288.15 K | 1007.84 | 1016.26 | 1032.93 | 1080.71 | 1126.92 | 1155.34 | 1226.86 | 1292.1 | 1407.51
298.15 K | 1005.56 | 1013.81 | 1030.24 | 1077.19 | 1122.76 | 1150.87 | 1221.49 | 1286.04 | 1400.33
308.15 K | 1002.4 | 1010.56 | 1026.7 | 1073.1 | 1117.95 | 1146.06 | 1215.55 | 1279.41 | 1393.17
318.15 K | 998.47 | 1006.61 | 1022.45 | 1068.41 | 1112.6 | 1140.61 | 1209.17 | 1272.01 | 1385.59
328.15 K | 993.97 | 1001.97 | 1017.66 | 1063.12 | 1106.82 | 1134.72 | 1201.99 | 1264.61 | 1377.87
338.15 K | 988.74 | 996.66 | 1012.18 | 1057.26 | 1100.32 | 1128.27 | 1194.55 | 1256.5 | 1369.7
348.15 K | 983.02 | 990.85 | 1006.4 | 1051.04 | 1094.06 | 1121.59 | 1188.05 | 1249.78 | 1361.53
358.15 K | 976.66 | 984.57 | 999.95 | 1044.34 | 1087.19 | 1114.51 | 1180.88 | 1242.32 | 1353.05
368.15 K | 969.9 | 977.81 | 993.09 | 1037.31 | 1079.94 | 1107.09 | 1173.15 | 1234.38 | 1344.4

O=[N+]([O-])[O-].O=[N+]([O-])[O-].[Mn+2] [manganese nitrate] + O
mass density
Details | m1 = 0.0248 | m1 = 0.0503 | m1 = 0.0836 | m1 = 0.5132
278.15 K | 1003.65 kg/m3 | 1007.23 kg/m3 | 1011.97 kg/m3 | 1069.81 kg/m3 and 1069.71 kg/m3
283.15 K | 1003.3 kg/m3 | 1006.89 kg/m3 | 1011.53 kg/m3 | 1068.8 kg/m3 and 1068.6 kg/m3
288.15 K | 1002.66 kg/m3 | 1006.23 kg/m3 | 1010.8 kg/m3 | 1067.5 kg/m3 and 1067.36 kg/m3
298.15 K | 1000.56 kg/m3 | 1004.07 kg/m3 | 1008.54 kg/m3 | 1064.29 kg/m3 and 1064.16 kg/m3
308.15 K | 997.52 kg/m3 | 1000.98 kg/m3 | 1005.36 kg/m3 | 1060.4 kg/m3 and 1060.29 kg/m3
318.15 K | 993.61 kg/m3 | 997.07 kg/m3 | 1001.42 kg/m3 | 1055.86 kg/m3 and 1055.72 kg/m3
328.15 K | 988.96 kg/m3 | 992.44 kg/m3 | 996.79 kg/m3 | 1050.75 kg/m3 and 1050.71 kg/m3
338.15 K | 983.93 kg/m3 | 987.31 kg/m3 | 991.63 kg/m3 | 1045.39 kg/m3 and 1045.24 kg/m3
348.15 K | 978.24 kg/m3 | 981.59 kg/m3 | 985.88 kg/m3 | 1039.4 kg/m3 and 1039.32 kg/m3
358.15 K | 972 kg/m3 | 975.36 kg/m3 | 979.63 kg/m3 | 1033.07 kg/m3 and 1032.97 kg/m3
368.15 K | 965.29 kg/m3 | 968.63 kg/m3 | 972.92 kg/m3 | 1026.26 kg/m3 and 1026.2 kg/m3
